Literature values in patent publication US4220642A, “Vasoactive lung polypeptides” (priority 1978, dated 1980).

Assays:
[1] = system: guinea pig trachea, ileum, gallbladder, pulmonary artery, "lung"; conditions: trachea (F2 α)
[2] = system: rat stomach strip, rat colon; conditions: rat stomach strip and colon

## CCCCC[C@H](O)/C=C/[C@H]1[C@H](O)CC(=O)[C@@H]1CCCCCCC(=O)O [Prostaglandin E1]
Chick rectum
  contraction of chick rectum by prostaglandins: contract
[1]
  contraction of guinea pig smooth-muscle organs by prostaglandins: contract
[2]
  contraction of rat smooth-muscle organs by prostaglandins: contract

## CCCCC[C@H](O)/C=C/[C@H]1[C@H](O)CC(=O)[C@@H]1C/C=C\CCCC(=O)O [Prostaglandin E2]
Chick rectum
  contraction of chick rectum by prostaglandins: contract
[1]
  contraction of guinea pig smooth-muscle organs by prostaglandins: contract
[2]
  contraction of rat smooth-muscle organs by prostaglandins: contract

## Prostaglandin F2 α
Chick rectum
  contraction of chick rectum by prostaglandins: contracting
[1]
  contraction of guinea pig smooth-muscle organs by prostaglandins: contracts
[2]
  contraction of rat smooth-muscle organs by prostaglandins: contracting
